Target: GDP-loaded KRAS G12D (Homo sapiens, UniProt P01116, G12D)
Assay: KRAS G12D Probe Displacement Assay
Format: binding
Conditions: KRAS G12D 0.5 nM, biotinylated probe 2 4 nM; Table 6 letters; read-out: KRAS G12D Probe Displacement Assay IC50 (class)

Chain of GDP-loaded KRAS G12D (P01116 1-188 isoform P01116-2 G12D): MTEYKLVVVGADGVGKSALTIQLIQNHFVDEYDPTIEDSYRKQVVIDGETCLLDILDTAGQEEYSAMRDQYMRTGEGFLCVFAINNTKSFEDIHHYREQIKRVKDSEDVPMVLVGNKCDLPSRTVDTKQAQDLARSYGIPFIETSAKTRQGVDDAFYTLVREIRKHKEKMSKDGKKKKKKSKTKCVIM

**Q.** For `Nc1nc2c(-c3c(C(F)(F)F)cc4c(N5CC6CCC(C5)N6)nc(OC5CC(O)C5)nc4c3F)ccc(F)c2s1` (centres unmarked) [Example E177, 3-((7-(2-amino-7-fluorobenzo[d]thiazol-4-yl)-4-(3,8-diazabicyclo [3.2.1]octan-3-yl)-8-fluoro-6-(trifluoromethyl)quinazolin-2-yl)oxy)cyclobutan-1-ol], which IC50 is on record?
**A.** The IC50 was < 0.05 µM.

**Q.** `CC(=O)N1CCCC(COc2nc(N3CC4CCC(C3)N4)c3cc(Cl)c(-c4nc(N)cc(C)c4C(F)(F)F)c(F)c3n2)C1` (centres unmarked) [Example E234, 1-(3-(((7-(6-amino-4-methyl-3-(trifluoromethyl)pyridine-2-yl)-4-(3,8-diazabicyclo[3.2.1]octan-3-yl)-6-chloro-8-fluoroquinazolin-2-yl)oxy)methyl)piperidin-1-yl)ethan-1-one] was tested. Which IC50 did it give?
**A.** The IC50 was 0.05 to 0.1 µM.

**Q.** For `CC(F)(F)C1(COc2nc(N3CC4CCC(C3)N4)c3cc(C(F)(F)F)c(-c4ccc(F)c5sc(N)nc45)c(F)c3n2)COC1` [Example E180, 4-(4-(3,8-diazabicyclo[3.2.1]octan-3-yl)-2-((3-(1,1-difluoroethyl)oxetan-3-yl)methoxy)-8-fluoro-6-(trifluoromethyl)quinazolin-7-yl)-7-fluorobenzo[d]thiazol-2-amine], which IC50 is on record?
**A.** The IC50 was < 0.05 µM.

**Q.** `Cc1cc(N)nc(-c2c(Cl)cc3c(N4CC5CCC(C4)N5)nc(OCC4(CO)CC(F)C4)nc3c2F)c1C(F)(F)F` (centres unmarked) [Example E227, (1-(((7-(6-amino-4-methyl-3-(trifluoromethyl)pyridin-2-yl)-4-(3,8-diazabicyclo[3.2.1]octan-3-yl)-6-chloro-8-fluoroquinazolin-2-yl)oxy)methyl)-3-fluorocyclobutyl)methanol] was tested. Which IC50 did it give?
**A.** The IC50 was < 0.05 µM.

**Q.** How did the IC50 turn out when `Nc1cc(Cl)c(C(F)(F)F)c(-c2c(Cl)cc3c(N4C5CNCC4COC5)nc(OC[C@@]45CCCN4C[C@H](F)C5)nc3c2F)n1` [Example E107, 6-(4-(3-oxa-7,9-diazabicyclo[3.3.1]nonan-9-yl)-6-chloro-8-fluoro-2-(((2R,7aS)-2-fluorotetrahydro-1H-pyrrolizin-7a(5H)-yl)methoxy)quinazolin-7-yl)-4-chloro-5-(trifluoromethyl)pyridin-2-amine] was run?
**A.** Its IC50 is < 0.05 µM.

**Q.** Which IC50 does the source give for `COC1(COc2nc(N3CC4CCC(C3)N4)c3cc(C(F)(F)F)c(-c4ccc(F)c5sc(N)nc45)c(F)c3n2)COC1` [Example E176, 4-(4-(3,8-diazabicyclo[3.2.1]octan-3-yl)-8-fluoro-2-((3-methoxyoxetan-3-yl)methoxy)-6-(trifluoromethyl)quinazolin-7-yl)-7-fluorobenzo[d] thiazol-2-amine] here?
**A.** The IC50 was < 0.05 µM.

**Q.** How did the IC50 turn out when `Cc1cc(N)nc(-c2c(SC(F)(F)F)cc3c(N4CC5CCC(C4)N5)nc(OC[C@@]45CCCN4C[C@H](F)C5)nc3c2F)c1C(F)(F)F` [Example E92, 6-(4-(3,8-diazabicyclo[3.2.1]octan-3-yl)-8-fluoro-2-(((2R,7aS)-2-fluorotetrahydro-1H-pyrrolizin-7a(5H)-yl)methoxy)-6-((trifluoromethyl)thio)quinazolin-7-yl)-4-methyl-5-(trifluoromethyl)pyridin-2-amine] was run?
**A.** The IC50 was < 0.05 µM.

**Q.** `Cc1cc(N)nc(-c2c(Cl)cc3c(N4CC5CCC(C4)N5)nc(OCC4(C)CCOC4)nc3c2F)c1C(F)(F)F` (centres unmarked) [Example E203, 6-(4-(3,8-diazabicyclo[3.2.1]octan-3-yl)-6-chloro-8-fluoro-2-((3-methyltetrahydrofuran-3-yl)methoxy)quinazolin-7-yl)-4-methyl-5-(trifluoromethyl)pyridin-2-amine] was tested. Which IC50 did it give?
**A.** Its IC50 is 0.05 to 0.1 µM.

**Q.** With `COCC1CCC2(COc3nc(N4CC5CCC(C4)N5)c4cc(C(F)(F)F)c(-c5ccc(F)c6sc(N)nc56)c(F)c4n3)CCCN12` (centres unmarked) [Example E131, 4-(4-(3,8-diazabicyclo[3.2.1]octan-3-yl)-8-fluoro-2-((3-(methoxymethyl)tetrahydro-1H-pyrrolizin-7a(5H)-yl)methoxy)-6-(trifluoromethyl)quinazolin-7-yl)-7-fluorobenzo[d]thiazol-2-amine] as the compound, how does the IC50 read?
**A.** The IC50 was < 0.05 µM.

**Q.** How did the IC50 turn out when `N#CC1(COc2nc(N3CC4CCC(C3)N4)c3cc(C(F)(F)F)c(-c4ccc(F)c5sc(N)nc45)c(F)c3n2)CCC1` [Example E214, 1-(((7-(2-amino-7-fluorobenzo[d]thiazol-4-yl)-4-(3,8-diazabicyclo [3.2.1]octan-3-yl)-8-fluoro-6-(trifluoromethyl)quinazolin-2-yl)oxy)methyl)cyclobutane-1-carbonitrile] was run?
**A.** Its IC50 is < 0.05 µM.

**Q.** Which IC50 does the source give for `C=Cc1cc(N)nc(-c2c(Cl)cc3c(N4CC5CCC(C4)N5)nc(OC[C@@]45CCCN4C[C@H](F)C5)nc3c2F)c1C(F)(F)F` [Example E125, 6-(4-(3,8-diazabicyclo[3.2.1]octan-3-yl)-6-chloro-8-fluoro-2-(((2R,7aS)-2-fluorotetrahydro-1H-pyrrolizin-7a(5H)-yl)methoxy)quinazolin-7-yl)-5-(trifluoromethyl)-4-vinylpyridin-2-amine] here?
**A.** Its IC50 is < 0.05 µM.

**Q.** Which IC50 does the source give for `Cc1cc(N)nc(-c2c(Cl)cc3c(N4CC5CCC(C4)N5)nc(OCC45CCC(CC4)OC5)nc3c2F)c1C(F)(F)F` [Example E229, 6-(2-((2-oxabicyclo[2.2.2]octan-4-yl)methoxy)-4-(3,8-diazabicyclo[3.2.1]octan-3-yl)-6-chloro-8-fluoroquinazolin-7-yl)-4-methyl-5-(trifluoromethyl)pyridin-2-amine] here?
**A.** Its IC50 is < 0.05 µM.

**Q.** For `Cc1cc(N)nc(-c2c(Cl)cc3c(N4CC5CCC(C4)N5)nc(OCC4(C#N)CCCC4)nc3c2F)c1C(F)(F)F` [Example E199, 1-(((7-(6-amino-4-methyl-3-(trifluoromethyl)pyridin-2-yl)-4-(3,8-diazabicyclo[3.2.1]octan-3-yl)-6-chloro-8-fluoroquinazolin-2-yl)oxy)methyl)cyclopentane-1-carbonitrile], which IC50 is on record?
**A.** Its IC50 is 0.05 to 0.1 µM.

**Q.** Which IC50 does the source give for `Nc1nc2c(-c3c(C(F)(F)F)cc4c(N5CC6CCC(C5)N6)nc(OC5CS(=O)(=O)C5)nc4c3F)ccc(F)c2s1` [Example E148, 3-((7-(2-amino-7-fluorobenzo[d]thiazol-4-yl)-4-(3,8-diazabicyclo [3.2.1]octan-3-yl)-8-fluoro-6-(trifluoromethyl)quinazolin-2-yl)oxy)thietane 1,1-dioxide] here?
**A.** Its IC50 is < 0.05 µM.

**Q.** For `Nc1nc2c(-c3c(C(F)(F)F)cc4c(N5CC6CCC(C5)N6)nc(OCC5CCCCC5O)nc4c3F)ccc(F)c2s1` (centres unmarked) [Example E213, 2-(((7-(2-amino-7-fluorobenzo[d]thiazol-4-yl)-4-(3,8-diazabicyclo[3.2.1]octan-3-yl)-8-fluoro-6-(trifluoromethyl)quinazolin-2-yl)oxy)methyl)cyclohexan-1-ol], which IC50 is on record?
**A.** The IC50 was < 0.05 µM.

**Q.** How did the IC50 turn out when `Nc1nc2c(-c3c(C(F)(F)F)cc4c(N5C6CNCC5COC6)nc(OCC56CC(F)CN5CC(F)C6)nc4c3F)ccc(F)c2s1` (centres unmarked) [Example E139, 4-(4-(3-oxa-7,9-diazabicyclo[3.3.1]nonan-9-yl)-2-((2,6-difluorotetrahydro-1H-pyrrolizin-7a(5H)-yl)methoxy)-8-fluoro-6-(trifluoromethyl)quinazolin-7-yl)-7-fluorobenzo[d]thiazol-2-amine] was run?
**A.** The IC50 was < 0.05 µM.

**Q.** How did the IC50 turn out when `Nc1nc2c(-c3c(C(F)(F)F)cc4c(N5CC6CCC(C5)N6)nc(OCC5C6COCC65)nc4c3F)ccc(F)c2s1` (centres unmarked) [Example E210, 4-(2-((3-oxabicyclo[3.1.0]hexan-6-yl)methoxy)-4-(3,8-diazabicyclo[3.2.1]octan-3-yl)-8-fluoro-6-(trifluoromethyl)quinazolin-7-yl)-7-fluorobenzo[d]thiazol-2-amine] was run?
**A.** Its IC50 is < 0.05 µM.

Reference: patent publication US20240140957A1, “BRIDGED COMPOUNDS AS KRAS G12D INHIBITOR AND DEGRADER AND THE USE THEREOF” (BeiGene Switzerland GmbH, priority 2021, published 2024)
